In the assay the target is T1, SmNAGAL (Smp_089290) (Schistosoma mansoni, UniProt A0A8F5XXF6).
T1 construct: gene NAGAL; native enzyme in soluble worm antigen preparation (SWAP) of adult worms, not purified; assigned by siRNA knockdown
Briefly: colorimetric hydrolysis at […] nm in worm extract, with siRNA knockdown. It is filed as biochemical. Conditions: 0.15 M McIlvaine buffer pH 4.6, 37 °C, 60 min; SWAP of siLuc and siSmp_089290 worms.

Turning to `CC(=O)N[C@H]1[C@@H](Oc2ccc([N+](=O)[O-])cc2)O[C@H](CO)[C@H](O)[C@@H]1O` [4-Nitrophenyl N-acetyl-α-D-galactosaminide], the “colorimetric hydrolysis at 410 nm in worm extract, with siRNA knockdown” value is recorded as “smnagal depletion in siRNA-treated worms significantly reduced α-NAGAL activity in SWAP”.

Source of the values: PMC8791529, “Schistosoma mansoni α-N-acetylgalactosaminidase (SmNAGAL) regulates coordinated parasite movement and egg production” (PLoS Pathogens, 2022).
